Source: patent US6720346B2, “Thiazole benzamide derivatives and pharmaceutical compositions for inhibiting cell proliferation” (Agouron Pharmaceuticals, Inc., priority 2001, dated 2004)
Where a name gives a salt, the structure may show the parent alone.

Experiments:
[1] = target: T1, CDK2/cyclin A (Homo sapiens, UniProt P24941); experiment: Inhibition of CDK2/cyclin A retinoblastoma kinase activity (Ki; % inhibition); assay type: biochemical; conditions: for Ki: apparent Ki, CDK2/cyclin A, Rb substrate
T1 construct: made in house; host or cells: CDK2: insect cells (baculovirus); cyclin A: E. coli
Method: (§1) Cyclin-dependent kinase activity was measured by quantifying the enzyme-catalyzed, time-dependent incorporation of radioactive phosphate from [^32P]ATP or [^33P]ATP into a protein substrate. Unless noted otherwise, assays were performed in 96-well plates in a total volume of 50 μL, in the presence of 10 mM HEPES (N-[2-hydroxyethyl]piperazine-N′-[2-ethanesulfonic acid]) (pH 7.4), 10 mM MgCl2, 25 μM adenosine triphosphate (ATP), 1 mg/mL ovalbumin, 5 μg/mL leupeptin, 1 mM dithiothreitol, 10 mM β-glycerophosphate, 0.1 mM sodium vanadate, 1 mM sodium fluoride, 2.5 mM ethylene glycol-bis(β-aminoethyl ether)-N,N,N′N′-tetraacetic acid (EGTA), 2% (v/v) dimethylsulfoxide, and 0.03-0.4 μCi [^32/33P]ATP per reaction. Reactions were initiated with enzyme, incubated at 30° C., and terminated after 20 minutes by the addition of ethylenediaminetetraacetic acid (EDTA) to 250 mM. The phosphorylated substrate was then captured on a nitrocellulose or phosphocellulose membrane using a 96-well filtration manifold, and unincorporated radioactivity was removed by repeated washing with 0.85% phosphoric acid. Radioactivity was quantified by exposing the dried membranes to a phosphorimager.
(§2) Compounds from combinatorial libraries were screened from 96-well plates for % inhibition of CDK activity at 30 nM theoretical compound concentration. Inhibition was measured relative to control wells that contained all reaction components including 2% (v/v) DMSO but no compound, after subtraction of background radioactivity measured in the absence of enzyme. Apparent Ki values of discrete compounds were measured by assaying enzyme activity in the presence of different inhibitor compound concentrations and subtracting the background radioactivity measured in the absence of enzyme. The kinetic parameters (kcat, Km for ATP) were measured for each enzyme under the usual assay conditions by determining the dependence of initial rates on ATP concentration. Inhibition data were fit to an equation for competitive inhibition using Kaleidagraph (Synergy Software), or were fit to an equation for competitive tight-binding inhibition using the software KineTic (BioKin, Ltd.).
CDK2 was purified using published methodology (Rosenblatt et al., “Purification and Crystallization of Human Cyclin-dependent Kinase 2,” J. Mol. Biol., 230, 1993, pp. 1317-1319) from insect cells that had been infected with a baculovirus expression vector. […] A complex of CDK2 and proteolyzed cyclin A was prepared and purified by gel filtration. The substrate for this assay was the same Rb substrate fragment used for the CDK4 assays, and the methodology of the CDK2/delta cyclin A and the CDK4/delta cyclin D3 assays was essentially the same, except that CDK2 was present at 10 nM or 19 nM. The duration of the assay was 60 or 75 minutes, during which the time-dependence of product formation was linear and initial rate conditions were met.

[2] = target: T2, human CDK4/cyclin D3 (Homo sapiens, UniProt P11802); experiment: Inhibition of CDK4/cyclin D retinoblastoma kinase activity (Ki; % inhibition); assay type: biochemical; conditions: for Ki: apparent Ki, CDK4/cyclin D3, Rb substrate
T2 construct: made in house; host or cells: insect cells co-infected with baculovirus vectors
T2 sequence (P11802 whole entry): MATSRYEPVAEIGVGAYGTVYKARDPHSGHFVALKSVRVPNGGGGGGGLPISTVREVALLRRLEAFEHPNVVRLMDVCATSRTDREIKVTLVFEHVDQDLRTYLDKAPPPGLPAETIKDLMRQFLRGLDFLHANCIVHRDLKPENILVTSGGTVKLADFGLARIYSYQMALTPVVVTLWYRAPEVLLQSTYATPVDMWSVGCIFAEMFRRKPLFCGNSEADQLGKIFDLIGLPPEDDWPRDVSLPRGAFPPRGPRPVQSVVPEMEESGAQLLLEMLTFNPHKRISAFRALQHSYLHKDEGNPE
T2 sequence (P30281 1-264 partner limits assumed): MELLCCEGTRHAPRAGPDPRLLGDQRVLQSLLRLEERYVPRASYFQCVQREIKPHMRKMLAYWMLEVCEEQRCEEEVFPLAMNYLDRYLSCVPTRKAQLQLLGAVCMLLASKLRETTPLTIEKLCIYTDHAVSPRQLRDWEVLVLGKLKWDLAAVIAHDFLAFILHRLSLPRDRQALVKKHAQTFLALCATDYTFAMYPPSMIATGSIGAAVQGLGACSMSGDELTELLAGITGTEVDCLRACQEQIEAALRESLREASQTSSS
Method: as §1, §2
A complex of human CDK4 and genetically truncated (1-264) cyclin D3 was purified using traditional biochemical chromatographic techniques from insect cells that had been co-infected with the corresponding baculovirus expression vectors (see e.g., Meijer and Kim, “Chemical Inhibitors of Cyclin-Dependent Kinases,” Methods in Enzymol., 283 (1997), pp. 113-128.). The enzyme complex (5 nM) was assayed with 0.3-0.5 μg of purified recombinant retinoblastoma protein fragment (Rb) as a substrate. The engineered Rb fragment (residues 386-928 of the native retinoblastoma protein; 62.3 kDa) contains the majority of the phosphorylation sites found in the native 106-kDa protein, as well as a tag of six histidine residues for ease of purification. Phosphorylated Rb substrate was captured by microfiltration on a nitrocellulose membrane and quantified using a phosphorimager as described above. For measurement of tight-binding inhibitors, the assay duration was extended to 60 minutes, during which the time-dependence of product formation was linear and initial rate conditions were met.

[3] = system: HCT-116 cell line; experiment: Inhibition of cell growth, MTT tetrazolium salt assay; assay type: cell-based; conditions: for IC50: Homo sapiens, HCT-116, 120 h, MTT, three to five days
Method: Inhibition of cell growth was measured using the tetrazolium salt assay, which is based on the ability of viable cells to reduce 3-(4,5-dimethylthiazol-2-yl)-2,5-[2H]-diphenyltetrazolium bromide (MTT) to formazan (Mossman, Journal of Immunological Methods, 65, (1983), pp. 55-58). The water-insoluble purple formazan product was then detected spectrophotometrically. The HCT-116 cell line was used as a representative cancer cell line and grown in 96-well plates. Cells were plated in McCoy's 5A Medium at a volume of 135 μl/well. Plates were incubated for four hours before addition of inhibitor compounds. Different concentrations of inhibitor compounds were added in 0.5% (v/v) dimethylsulfoxide (15 μL/well), and cells were incubated at 37° C. (5% CO2) for three to five days. At the end of the incubation, MTT was added to a final concentration of 0.2 mg/mL, and cells were incubated for 4 hours more at 37° C. After centrifugation of the plates and removal of medium, the absorbance of the formazan (solubilized in dimethylsulfoxide) was measured at 540 nm. The concentration of inhibitor compound causing 50% (IC50) or 90% ([…]) inhibition of growth was determined from the linear portion of a semi-log plot of inhibitor concentration versus percent inhibition. All results were compared to control cells treated only with 0.5% (v/v) dimethylsulfoxide.

[4] = HCT-116 cells, 0.25 μM compound

SMILES	CDK2 % Inhibition at 0.03 μM ([1]; at 0.03 μM) [%]	CDK4 % Inhibition at 0.03 μM ([2]; at 0.03 μM) [%]	HCT-116 % Inhibition at 0.25 μM ([3]; HCT-116, at 0.25 μM) [%]	CDK2 % Inhibition at 0.03 μM ([1]; 0.03 μM compound) [%]	CDK4 % Inhibition at 0.03 μM ([2]; 0.03 μM compound) [%]	HCT-116 % Inhibition at 0.1 μM ([3]; HCT-116 cells, 0.1 μM compound) [%]	HCT-116 % Inhibition at 0.25 μM [3, 4] [%]	other results
COC(=O)[C@H](C)NC(=O)c1ccc(Nc2nc(N)c(C(=O)c3c(F)cccc3F)s2)cc1 [Example G145]	19	18	68					HCT-116 % Inhibition at 0.1 μM ([3]; HCT-116, at 0.1 μM): 0%
CN(CCO)C(=O)c1ccc(Nc2nc(N)c(C(=O)c3c(F)cccc3F)s2)cc1 [Example G17]	2	7	45					
Nc1nc(Nc2ccc(C(=O)N[C@H](CO)Cc3ccccc3)cc2)sc1C(=O)c1c(F)cccc1F [Example G318]				−14	1	16	48	
CCOC(=O)C1CCN(C(=O)c2ccc(Nc3nc(N)c(C(=O)c4c(F)cccc4F)s3)cc2)CC1 [Example G210]				13	20	15	45	
C=C(C)CNC(=O)c1ccc(Nc2nc(N)c(C(=O)c3c(F)cccc3F)s2)cc1 [Example G223]				14	19	14	50	
CN(C)CCCCCCNC(=O)c1ccc(Nc2nc(N)c(C(=O)c3c(F)cccc3F)s2)cc1 [Example G99]	−16	23	62					HCT-116 % Inhibition at 0.1 μM ([3]; HCT-116, at 0.1 μM): 24%
C[C@H](CN(C)C)NC(=O)c1ccc(Nc2nc(N)c(C(=O)c3c(F)cccc3F)s2)cc1 [Example A40, 4-[4-Amino-5-(2,6-difluoro-benzoyl)-thiazol-2-ylamino]-N-(2-dimethylamino-1R-methyl-ethyl)-benzamide Dihydrochloride]								Ki [1]: 94 nM; Ki [2]: 9 nM; IC50 [3]: 40 nM
Nc1nc(Nc2ccc(C(=O)NC3c4ccccc4CC3O)cc2)sc1C(=O)c1c(F)cccc1F (stereo not drawn) [Example G376]				20	−6	27	64	
Nc1nc(Nc2ccc(C(=O)NCCCN3CCCCC3)cc2)sc1C(=O)c1c(F)cccc1F [Example G128]	15	41	78					HCT-116 % Inhibition at 0.1 μM ([3]; HCT-116, at 0.1 μM): 23%
Cc1ccccc1CNC(=O)c1ccc(Nc2nc(N)c(C(=O)c3c(F)cccc3F)s2)cc1 [Example G244]				35	27	30	67	
CN1CCC[C@@]1(C)CNC(=O)c1ccc(Nc2nc(N)c(C(=O)c3c(F)cccc3F)s2)cc1 [Example A74, 4-{4-Amino-5-(2,6-difluoro-benzoyl)-thiazol-2-ylamino}-N-(1,2-dimethyl-pyrrolidin-2S-ylmethyl)-benzamide Trifluoroacetic Acid Salt]								Ki [1]: 9.8 nM; Ki [2]: 380 nM; IC50 [3]: 1900 nM
C[C@H](CN(C)C)NC(=O)c1ccc(Nc2nc(N)c(C(=O)c3ccccc3F)s2)cc1 [Example A66, Trifluoroacetic Acid Salt]								Ki [1]: 18 nM; Ki [2]: 350 nM; IC50 [3]: 120 nM
C#CCCN(CCCC)C(=O)c1ccc(Nc2nc(N)c(C(=O)c3c(F)cccc3F)s2)cc1 [Example G171]	4	16	47					HCT-116 % Inhibition at 0.1 μM ([3]; HCT-116, at 0.1 μM): 30%
CN(CCC#N)C(=O)c1ccc(Nc2nc(N)c(C(=O)c3c(F)cccc3F)s2)cc1 [Example G296]				0	22	0	43	
CCCCOc1ccc(NC(=O)c2ccc(Nc3nc(N)c(C(=O)c4c(F)cccc4F)s3)cc2)cc1 [Example G205]				1	7	12	52	
Nc1nc(Nc2ccc(C(=O)Nc3ccccc3CCO)cc2)sc1C(=O)c1c(F)cccc1F [Example G207]				15	15	15	66	
Nc1nc(Nc2ccc(C(=O)NCCN3CCCC3)cc2)sc1C(=O)c1c(F)cccc1F [Example A35, 4-[4-Amino-5-(2,6-difluoro-benzoyl)-thiazol-2-ylamino]-N-(2-pyrrolidin-1-yl-ethyl)-benzamide]								Ki [1]: 54 nM; Ki [2]: 6 nM; IC50 [3]: 120 nM
CCN(C)C(=O)c1ccc(Nc2nc(N)c(C(=O)c3c(F)cccc3F)s2)cc1 [Example G290]				−12	−2	2	39	
COc1cc(NC(=O)c2ccc(Nc3nc(N)c(C(=O)c4c(F)cccc4F)s3)cc2)cc(OC)c1 [Example G86]	10	0	73					HCT-116 % Inhibition at 0.1 μM ([3]; HCT-116, at 0.1 μM): 39%
Nc1nc(Nc2ccc(C(=O)NCCCN(CCO)CCO)cc2)sc1C(=O)c1c(F)cccc1F [Example G339]				6	34	9	48	
